Tests used:
[1] = system: α-Glucosidase Derived from NBRC4239 Strain; assay: Substrate specificity of the enzyme; format: biochemical, Aspergillus sojae; details: 40°C, pH 6.0; for Relative Activity* (%): substrate 10mM, relative to decomposition rate of 10 mM maltose
Method: The substrate specificity of the present enzyme was evaluated at the conditions of 40°C and pH 6.0.

[2] = system: α-Glucosidase Derived from NBRC4239 Strain; assay: Effect of metal ion on the enzyme activity; format: biochemical, Aspergillus sojae
Method: The hydrolytic activity using maltose as the substrate was measured as shown below. A 20 mM maltose (50µL) dissolved in the 20mM MES buffer (pH 6.0) and an enzyme solution diluted by the buffer are mixed and incubated at 40°C for 30 min., then, 1 µL of 10% oxalic acid solution was added and heated at 100°C for 10 min. to stop the reaction. The amount of liberated glucose in the reaction solution was measured by Glucose CII Test Wako (produced by Wako Pure Chemical Industries, Ltd.). One unit of α-glucosidase activity was defined as the amount of enzyme that catalyzes hydrolysis of 1 µmol of maltose per minute. The effect of various metal ions on the present enzyme was studied. The enzyme activity was analyzed according to <Analysis Method of α-Glucosidase Activity>.

| Molecule | hydrolytic activity toward substrate (in words) [1] | Relative Activity* (%) [1] [%] | Specific Activity (%) ([2]; Concentration 5 mM added to reaction mixture, no addition = 100) | effect on the enzyme activity (in words) ([2]; addition of ions to the reaction mixture) |
| --- | --- | --- | --- | --- |
| OC[C@H]1O[C@H](O[C@H]2[C@H](O)[C@@H](O)C(O)O[C@@H]2CO)[C@H](O)[C@@H](O)[C@@H]1O (mixture of isomers) [maltose] | well hydrolytic activities | 100 | – | – |
| O=C(O)CN(CCN(CC(=O)O)CC(=O)O)CC(=O)O [EDTA] | – | – | 85 | inhibited the activity somewhat |
| OC[C@H]1O[C@H](OC[C@H]2OC(O)[C@H](O)[C@@H](O)[C@@H]2O)[C@H](O)[C@@H](O)[C@@H]1O (stereo partly drawn) [isomaltose] | well hydrolytic activities | 163 | – | – |
| OC[C@H]1O[C@H](OC[C@H]2O[C@H](OC[C@H]3O[C@H](OC[C@H]4OC(O)[C@H](O)[C@@H](O)[C@@H]4O)[C@H](O)[C@@H](O)[C@@H]3O)[C@H](O)[C@@H](O)[C@@H]2O)[C@H](O)[C@@H](O)[C@@H]1O (stereo partly drawn) [isomaltotetraose] | – | 168 | – | – |
| OC[C@H]1O[C@H](OC[C@H]2O[C@H](OC[C@H]3OC(O)[C@H](O)[C@@H](O)[C@@H]3O)[C@H](O)[C@@H](O)[C@@H]2O)[C@H](O)[C@@H](O)[C@@H]1O (stereo partly drawn) [isomaltotriose] | – | 161 | – | – |
| OC[C@H]1O[C@H](O[C@H]2[C@H](O)[C@@H](O)[C@@H](O[C@H]3[C@H](O)[C@@H](O)[C@@H](O[C@H]4[C@H](O)[C@@H](O)[C@@H](O[C@H]5[C@H](O)[C@@H](O)[C@@H](O[C@H]6[C@H](O)[C@@H](O)[C@@H](O[C@H]7[C@H](O)[C@@H](O)C(O)O[C@@H]7CO)O[C@@H]6CO)O[C@@H]5CO)O[C@@H]4CO)O[C@@H]3CO)O[C@@H]2CO)[C@H](O)[C@@H](O)[C@@H]1O (stereo partly drawn) [maltoheptaose] | – | 57 | – | – |
| OC[C@H]1O[C@H](O[C@H]2[C@H](O)[C@@H](O)[C@@H](O[C@H]3[C@H](O)[C@@H](O)[C@@H](O[C@H]4[C@H](O)[C@@H](O)[C@@H](O[C@H]5[C@H](O)[C@@H](O)[C@@H](O[C@H]6[C@H](O)[C@@H](O)C(O)O[C@@H]6CO)O[C@@H]5CO)O[C@@H]4CO)O[C@@H]3CO)O[C@@H]2CO)[C@H](O)[C@@H](O)[C@@H]1O (stereo partly drawn) [maltohexaose] | – | 49 | – | – |
| OC[C@H]1O[C@H](O[C@H]2[C@H](O)[C@@H](O)[C@@H](O[C@H]3[C@H](O)[C@@H](O)[C@@H](O[C@H]4[C@H](O)[C@@H](O)[C@@H](O[C@H]5[C@H](O)[C@@H](O)C(O)O[C@@H]5CO)O[C@@H]4CO)O[C@@H]3CO)O[C@@H]2CO)[C@H](O)[C@@H](O)[C@@H]1O (stereo partly drawn) [maltopentaose] | – | 41 | – | – |
| OC[C@H]1O[C@H](O[C@H]2[C@H](O)[C@@H](O)[C@@H](O[C@H]3[C@H](O)[C@@H](O)[C@@H](O[C@H]4[C@H](O)[C@@H](O)C(O)O[C@@H]4CO)O[C@@H]3CO)O[C@@H]2CO)[C@H](O)[C@@H](O)[C@@H]1O (stereo partly drawn) [maltotetraose] | a little low | 16 | – | – |
| OC[C@H]1O[C@H](O[C@H]2[C@H](O)[C@@H](O)[C@@H](O[C@H]3[C@H](O)[C@@H](O)C(O)O[C@@H]3CO)O[C@@H]2CO)[C@H](O)[C@@H](O)[C@@H]1O (stereo partly drawn) [maltotriose] | – | 45 | – | – |
| OC[C@H]1O[C@H](O[C@H]2[C@H](O)[C@@H](CO)OC(O)[C@@H]2O)[C@H](O)[C@@H](O)[C@@H]1O (stereo partly drawn) [nigerose] | well hydrolytic activities | 153 | – | – |
| OC[C@H]1O[C@H](OC[C@H]2O[C@H](O[C@H]3[C@H](O)[C@@H](O)C(O)O[C@@H]3CO)[C@H](O)[C@@H](O)[C@@H]2O)[C@H](O)[C@@H](O)[C@@H]1O (stereo partly drawn) [panose] | – | 153 | – | – |
| OC[C@H]1O[C@H](O[C@H]2O[C@H](CO)[C@@H](O)[C@H](O)[C@H]2O)[C@H](O)[C@@H](O)[C@@H]1O [trehalose] | very slight | 1 | – | – |
| OC[C@H]1O[C@@H]2O[C@H]3[C@H](O)[C@@H](O)[C@@H](O[C@H]4[C@H](O)[C@@H](O)[C@@H](O[C@H]5[C@H](O)[C@@H](O)[C@@H](O[C@H]6[C@H](O)[C@@H](O)[C@@H](O[C@H]7[C@H](O)[C@@H](O)[C@@H](O[C@H]1[C@H](O)[C@H]2O)O[C@@H]7CO)O[C@@H]6CO)O[C@@H]5CO)O[C@@H]4CO)O[C@@H]3CO [α-cyclodextrine] | well hydrolytic activities | 58 | – | – |
| OC[C@H]1O[C@@H]2O[C@H]3[C@H](O)[C@@H](O)[C@@H](O[C@H]4[C@H](O)[C@@H](O)[C@@H](O[C@H]5[C@H](O)[C@@H](O)[C@@H](O[C@H]6[C@H](O)[C@@H](O)[C@@H](O[C@H]7[C@H](O)[C@@H](O)[C@@H](O[C@H]8[C@H](O)[C@@H](O)[C@@H](O[C@H]1[C@H](O)[C@H]2O)O[C@@H]8CO)O[C@@H]7CO)O[C@@H]6CO)O[C@@H]5CO)O[C@@H]4CO)O[C@@H]3CO [β-cyclodextrine] | well hydrolytic activities | 48 | – | – |
| OC[C@H]1O[C@@H]2O[C@H]3[C@H](O)[C@@H](O)[C@@H](O[C@H]4[C@H](O)[C@@H](O)[C@@H](O[C@H]5[C@H](O)[C@@H](O)[C@@H](O[C@H]6[C@H](O)[C@@H](O)[C@@H](O[C@H]7[C@H](O)[C@@H](O)[C@@H](O[C@H]8[C@H](O)[C@@H](O)[C@@H](O[C@H]9[C@H](O)[C@@H](O)[C@@H](O[C@H]1[C@H](O)[C@H]2O)O[C@@H]9CO)O[C@@H]8CO)O[C@@H]7CO)O[C@@H]6CO)O[C@@H]5CO)O[C@@H]4CO)O[C@@H]3CO [γ-cyclodextrine] | a little low | 14 | – | – |
| kojibiose | well hydrolytic activities | 91 | – | – |
